Measurements: US12037344B2, “NLRP3 modulators” (INNATE TUMOR IMMUNITY, INC., priority 2018, dated 2024)
Structures can show the parent of a compound that is named as a salt. Where two headings read alike, the source gives them in different places.

How the values were obtained:
TLR8 = biological target: T1, TLR8 (Homo sapiens, UniProt Q9NR97); test: In vitro human TLR8 binding reporter assay (HEK-Blue, NF-kB/AP1-inducible SEAP); type: cell-based; details: read-out: TLR8 Agonist EC50
T1 construct: human HEK-Blue cells co-expressing a TLR7 or TLR8 gene
T1 sequence (Q9NR97 27-1041): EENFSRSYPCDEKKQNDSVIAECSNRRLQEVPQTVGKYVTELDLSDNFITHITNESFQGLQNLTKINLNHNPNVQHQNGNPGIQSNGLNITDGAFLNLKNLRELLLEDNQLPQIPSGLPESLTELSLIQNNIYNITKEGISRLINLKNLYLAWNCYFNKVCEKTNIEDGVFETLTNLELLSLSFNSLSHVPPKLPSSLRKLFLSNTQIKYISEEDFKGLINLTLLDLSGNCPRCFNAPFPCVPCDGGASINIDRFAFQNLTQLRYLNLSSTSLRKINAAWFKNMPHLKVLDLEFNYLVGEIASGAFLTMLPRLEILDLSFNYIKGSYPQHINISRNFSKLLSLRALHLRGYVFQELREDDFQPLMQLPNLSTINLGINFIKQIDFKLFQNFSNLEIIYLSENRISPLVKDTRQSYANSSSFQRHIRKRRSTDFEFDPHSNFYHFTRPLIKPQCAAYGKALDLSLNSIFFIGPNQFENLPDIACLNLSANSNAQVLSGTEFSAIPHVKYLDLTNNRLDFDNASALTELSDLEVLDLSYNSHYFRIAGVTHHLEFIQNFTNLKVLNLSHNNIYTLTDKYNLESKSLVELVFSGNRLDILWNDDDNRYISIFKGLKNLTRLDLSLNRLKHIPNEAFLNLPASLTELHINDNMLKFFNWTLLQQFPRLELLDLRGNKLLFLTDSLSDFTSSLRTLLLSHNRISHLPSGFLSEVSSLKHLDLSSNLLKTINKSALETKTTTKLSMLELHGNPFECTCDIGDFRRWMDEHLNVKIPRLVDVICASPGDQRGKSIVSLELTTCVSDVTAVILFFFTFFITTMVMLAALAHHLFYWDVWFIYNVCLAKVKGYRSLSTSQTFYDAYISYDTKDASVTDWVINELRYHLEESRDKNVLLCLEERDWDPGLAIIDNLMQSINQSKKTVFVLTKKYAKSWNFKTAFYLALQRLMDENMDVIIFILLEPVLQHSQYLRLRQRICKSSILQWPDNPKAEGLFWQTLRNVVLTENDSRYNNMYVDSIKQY
Method in brief: (§1)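 EC50s come from NF-kB/AP1-driven SEAP secretion in HEK-Blue cells expressing TLR7 or TLR8, measured with Quanti-Blue after an 18 h compound incubation. Maximal response is defined by a 50 μM reference standard.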

TLR7 = biological target: T2, TLR7 (Homo sapiens, UniProt Q9NYK1); test: In vitro human TLR7 binding reporter assay (HEK-Blue, NF-kB/AP1-inducible SEAP); type: cell-based; details: read-out: TLR7 Agonist EC50
T2 construct: human HEK-Blue cells co-expressing a TLR7 or TLR8 gene
T2 sequence (Q9NYK1 27-1049): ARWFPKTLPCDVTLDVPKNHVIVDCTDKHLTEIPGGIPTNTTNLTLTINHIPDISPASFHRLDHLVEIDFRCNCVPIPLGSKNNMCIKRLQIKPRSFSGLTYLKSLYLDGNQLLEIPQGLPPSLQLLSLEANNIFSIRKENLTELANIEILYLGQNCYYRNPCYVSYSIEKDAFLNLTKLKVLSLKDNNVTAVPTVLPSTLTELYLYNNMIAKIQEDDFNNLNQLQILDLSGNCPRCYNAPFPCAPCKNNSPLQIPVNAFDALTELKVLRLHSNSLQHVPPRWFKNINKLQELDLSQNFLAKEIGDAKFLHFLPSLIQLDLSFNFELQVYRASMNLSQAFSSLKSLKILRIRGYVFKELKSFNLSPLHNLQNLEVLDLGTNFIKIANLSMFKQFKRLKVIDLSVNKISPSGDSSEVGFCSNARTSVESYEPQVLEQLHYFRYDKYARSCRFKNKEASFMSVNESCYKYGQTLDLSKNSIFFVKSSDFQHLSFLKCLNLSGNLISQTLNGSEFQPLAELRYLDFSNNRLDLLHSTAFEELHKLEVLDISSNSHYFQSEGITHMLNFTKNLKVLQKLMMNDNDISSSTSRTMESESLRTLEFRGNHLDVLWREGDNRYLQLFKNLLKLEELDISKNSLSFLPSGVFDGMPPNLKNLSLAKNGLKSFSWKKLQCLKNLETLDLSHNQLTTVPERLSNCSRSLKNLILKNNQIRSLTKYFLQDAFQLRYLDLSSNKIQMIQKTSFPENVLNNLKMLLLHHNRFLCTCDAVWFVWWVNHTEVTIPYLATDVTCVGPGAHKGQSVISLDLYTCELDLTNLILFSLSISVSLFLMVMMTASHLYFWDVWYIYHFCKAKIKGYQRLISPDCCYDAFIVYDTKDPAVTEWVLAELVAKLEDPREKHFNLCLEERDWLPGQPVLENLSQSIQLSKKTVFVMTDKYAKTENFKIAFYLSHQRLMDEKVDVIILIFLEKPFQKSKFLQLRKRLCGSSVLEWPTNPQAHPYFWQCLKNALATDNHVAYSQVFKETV
Method in brief: as §1

THP-1 cells = test: Measurement of IL-1β production, hTRF protocol (second alternative procedure), THP-1 cells; type: cell-based, human
Method in brief: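 Compounds, dilution series starting at a final 10 μM, were incubated 2 hours at 37° C with PMA-differentiated THP-1 cells (50 ng/ml overnight; 50,000 cells/well, 2% FBS RPMI). Released IL-1β quantified in supernatant by hTRF kit with 1:40 antibody dilution, 4° C overnight, 665/615 nm ratio.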

[1] = Homo sapiens, THP-1, IL-1β production, human cells, read-out: NLRP3 hILIB EC50
[2] = Homo sapiens, THP-1, IL-1β production, human, read-out: NLRP3 hILIB EC50

| SMILES | EC50 (TLR8; activity range) [µM] | EC50 (TLR7; activity range) [µM] | EC50 (THP-1 cells; [1]) [µM] | EC50 (TLR8; activity range class) [µM] | EC50 (TLR7; activity range class) [µM] | EC50 (THP-1 cells; [2]) [µM] | EC50 (THP-1 cells; Homo sapiens, THP-1, read-out: NLRP3 hILIB EC50) [µM] | EC50 (THP-1 cells; IL-1β production, human cells, read-out: NLRP3 hILIB EC50) [µM] |
| --- | --- | --- | --- | --- | --- | --- | --- | --- |
| CC(C)(O)CCn1ncc2c(N)nc3cc(-c4cc[nH]n4)ccc3c21 [Example 427] | > 100 | > 100 | 2.01 |  |  |  |  |  |
| Nc1nc2cc(-c3cc[nH]n3)ccc2c2cn(Cc3ccccn3)nc12 [Example 25] |  |  |  | > 100 | > 100 | 0.26 |  |  |
| Nc1nc2cc(-c3cc[nH]n3)ccc2c2[nH]c(CN[C@H]3CCOC3)cc12 [Example 421] | > 100 | > 100 | 0.46 |  |  |  |  |  |
| CC(=O)NC(C)(C)Cn1cc2c(N)nc3cc(-c4ccn[nH]4)ccc3c2n1 [Example 256] |  |  |  | > 100 | > 100 | 0.53 |  |  |
| N#CC1(Cn2cc3c(N)nc4cc(-c5cc[nH]n5)ccc4c3n2)CC1 [Example 464] | > 100 | > 100 | 0.24 |  |  |  |  |  |
| Nc1nc2cc(-c3cc[nH]n3)ccc2c2nn(CCC(=O)NCC(F)F)cc12 [Example 515] | > 100 | > 100 | 4.09 |  |  |  |  |  |
| Nc1nc2cc(-c3cc[nH]n3)ccc2c2nn(CCNC(=O)c3cnccn3)cc12 [Example 201] |  |  |  | > 100 | > 100 | 0.48 |  |  |
| CCNC(=O)CCn1cc2c(N)nc3cc(-c4cc[nH]n4)ccc3c2n1 [Example 517] | > 100 | > 100 | 1.72 |  |  |  |  |  |
| Nc1nc2cc(-c3cc[nH]n3)ccc2c2cn(CCNC(=O)CC(F)(F)F)nc12 [Example 181] |  |  |  | > 100 | > 100 | 6.53 |  |  |
| NC(=O)CCn1cc2c(N)nc3cc(-c4cc[nH]n4)ccc3c2n1 [Example 462] | > 100 | > 100 | 0.22 |  |  |  |  |  |
| CCNC(=O)Cn1cc2c(n1)c(N)nc1cc(-c3cc[nH]n3)ccc12 [Example 24] |  |  |  | > 100 | > 100 | 2.9 |  |  |
| COc1ccc(C(=O)NCCn2cc3c(N)nc4cc(-c5cc[nH]n5)ccc4c3n2)nc1 [Example 202] |  |  |  | > 100 | > 100 | 0.66 |  |  |
| CCS(=O)(=O)CCn1cc2c(n1)c(N)nc1cc(-c3cc[nH]n3)ccc12 [Example 526] | > 100 | > 100 | 0.7 |  |  |  |  |  |
| CC(C)C(=O)NCCn1cc2c(n1)c(N)nc1cc(-c3cc[nH]n3)ccc12 [Example 34] |  |  |  | > 100 | 20 to 100 | 8.85 |  |  |
| CC(CO)n1cc2c(N)nc3cc(-c4ccn[nH]4)ccc3c2n1 (stereo not drawn) [Example 253, 2-[4-amino-7-(1H-pyrazol-5-yl)-2H-pyrazolo[4,3-c]quinolin-2-yl]propan-1-ol] |  |  |  | > 100 | > 100 |  | 0.3 |  |
| CC(C)(C(=O)N1CC(F)(F)C1)n1cc2c(N)nc3cc(-c4cc[nH]n4)ccc3c2n1 [Example 523] | > 100 | > 100 | 7.3 |  |  |  |  |  |
| Nc1nc2cc(-c3cc[nH]n3)ccc2c2[nH]c(CNCC(F)(F)F)cc12 [Example 497] | > 100 | > 100 | 0.05 |  |  |  |  |  |
| Nc1nc2cc(-c3cc[nH]n3)ccc2c2[nH]c(CCNC(=O)c3ccc(F)cn3)cc12 [Example 417] | > 100 | > 100 | 0.16 |  |  |  |  |  |
| C[C@@H](O)Cn1cc2c(N)nc3cc(-c4cc[nH]n4)ccc3c2n1 [Example 370] |  |  |  | > 100 | > 100 | 0.38 |  |  |
| Nc1nc2cc(-c3cc[nH]n3)ccc2c2cn(CC(=O)Nc3ccccn3)nc12 [Example 28] |  |  |  | > 100 | > 100 | 1.31 |  |  |
| CC(C)(CO)n1cc2c(N)nc3cc(-c4cc[nH]n4)ccc3c2n1 [Example 407, 2-(4-amino-7-(1H-pyrazol-3-yl)-2H-pyrazolo[4,3-c]quinolin-2-yl)-2-methylpropan-1-ol, TFA] | > 100 | > 100 |  |  |  |  |  | 0.5 |
| CC(=O)N1CCN(CCn2cc3c(N)nc4cc(-c5ccn[nH]5)ccc4c3n2)CC1 [Example 276] |  |  |  | > 100 | > 100 | 31.7 |  |  |
| Cc1[nH]c2c(c(N)nc3cc(-c4cc[nH]n4)ccc32)c1C [Example 423, 2,3-dimethyl-7-(1H-pyrazol-3-yl)-1H-pyrrolo[3,2-c]quinolin-4-amine] | > 100 | > 100 | 0.62 |  |  |  |  |  |
| CC(C)n1cc2c(N)nc3cc(-c4cc[nH]n4)ccc3c2n1 [Example 326] |  |  |  | > 100 | > 100 | 0.22 |  |  |
| Nc1nc2cc(-n3cccn3)ccc2c2[nH]c(CCCO)cc12 [Example 446] | > 100 | > 100 | 0.2 |  |  |  |  |  |
| CC(C)(O)Cn1ncc2c(N)nc3cc(-c4cc[nH]n4)ccc3c21 [Example 432] | > 100 | > 100 | 3.19 |  |  |  |  |  |
| Nc1nc2cc(-c3cc[nH]n3)ccc2c2nn(C[C@@H]3C[C@H](O)CN3)cc12 [Example 382] |  |  |  | > 100 | > 100 | 5.39 |  |  |
| CN(C)CCn1cc2c(N)nc3cc(-c4ccn[nH]4)ccc3c2n1 [Example 261] |  |  |  | > 100 | > 100 | 1.29 |  |  |
